# From PubChem BioAssay (NCI)
#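 Following 48 hours of exposure in 96-well plates, responses at five concentrations were used to interpolate endpoints linearly. GI50 marks 50% less growth. Definition used: TGI = concentration required for complete inhibition of growth.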
# Tests used:
# Experiment in all cases: DTP human tumour cell line panel, 48 h
# UACC-62 melanoma = system: UACC-62 melanoma
# SF-539 CNS = system: SF-539 CNS
# SF-268 CNS = system: SF-268 CNS
# MALME-3M melanoma = system: MALME-3M melanoma
# PC-3 prostate = system: PC-3 prostate
# MOLT-4 leukemia = system: MOLT-4 leukemia
# HT29 colon = system: HT29 colon
# RXF 393 renal = system: RXF 393 renal
# MDA-MB-435 = system: MDA-MB-435
# CCRF-CEM leukemia = system: CCRF-CEM leukemia
# HCT-116 colon = system: HCT-116 colon
# CAKI-1 renal = system: CAKI-1 renal
# MCF7 breast = system: MCF7 breast
# BT-549 breast = system: BT-549 breast
# SK-MEL-28 melanoma = system: SK-MEL-28 melanoma
# EKVX NSCLC = system: EKVX NSCLC
# UO-31 renal = system: UO-31 renal
# K-562 leukemia = system: K-562 leukemia
# SK-MEL-5 melanoma = system: SK-MEL-5 melanoma
# COLO 205 colon = system: COLO 205 colon
# HOP-62 NSCLC = system: HOP-62 NSCLC
# M14 melanoma = system: M14 melanoma
# HOP-92 NSCLC = system: HOP-92 NSCLC
# TK-10 renal = system: TK-10 renal
# RPMI-8226 leukemia = system: RPMI-8226 leukemia
# NCI-H460 lung = system: NCI-H460 lung
# HS 578T breast = system: HS 578T breast
# SN12C renal = system: SN12C renal
# SK-MEL-2 melanoma = system: SK-MEL-2 melanoma
# IGROV1 ovarian = system: IGROV1 ovarian
# NCI-H522 lung = system: NCI-H522 lung
# OVCAR-4 ovarian = system: OVCAR-4 ovarian
# DU-145 prostate = system: DU-145 prostate
# 786-0 renal = system: 786-0 renal
# A549 NSCLC = system: A549 NSCLC
# HCC-2998 colon = system: HCC-2998 colon
# NCI-H226 lung = system: NCI-H226 lung
# OVCAR-3 ovarian = system: OVCAR-3 ovarian
# NCI-H23 lung = system: NCI-H23 lung
# SW-620 colon = system: SW-620 colon
# SNB-75 CNS = system: SNB-75 CNS
# U251 CNS = system: U251 CNS
# SNB-19 CNS = system: SNB-19 CNS
# HL-60(TB) leukemia = system: HL-60(TB) leukemia
# UACC-257 melanoma = system: UACC-257 melanoma
# KM12 colon = system: KM12 colon
# A498 renal = system: A498 renal
# T-47D breast = system: T-47D breast
# OVCAR-8 ovarian = system: OVCAR-8 ovarian
# NCI/ADR-RES ovarian = system: NCI/ADR-RES ovarian
# MDA-MB-231 breast = system: MDA-MB-231 breast
# SK-OV-3 ovarian = system: SK-OV-3 ovarian
# SF-295 CNS = system: SF-295 CNS
# HCT-15 colon = system: HCT-15 colon
# LOX IMVI melanoma = system: LOX IMVI melanoma
# OVCAR-5 ovarian = system: OVCAR-5 ovarian
# SR leukemia = system: SR leukemia
# ACHN renal = system: ACHN renal
# MDA-N = system: MDA-N
smiles,measurement,setting,value
CN1CCN(c2ccc3nc(-c4[nH]ncc4Nc4ncnc5c4OCCCN5)[nH]c3c2)CC1,GI50,UACC-62 melanoma,10.3 nM
same,TGI,UACC-62 melanoma,52.9 nM
same,GI50,SF-539 CNS,< 10 nM
same,TGI,SF-539 CNS,21.4 nM
same,GI50,SF-268 CNS,< 11.2 nM
same,TGI,SF-268 CNS,49 nM
same,GI50,MALME-3M melanoma,18.5 nM
same,TGI,MALME-3M melanoma,63.3 nM
same,GI50,PC-3 prostate,< 10 nM
same,TGI,PC-3 prostate,67.1 nM
same,GI50,MOLT-4 leukemia,< 10 nM
same,TGI,MOLT-4 leukemia,315 nM
same,GI50,HT29 colon,< 12.6 nM
same,TGI,HT29 colon,100 nM
same,GI50,RXF 393 renal,< 10 nM
same,GI50,MDA-MB-435,< 10 nM
same,TGI,MDA-MB-435,81 nM
same,GI50,CCRF-CEM leukemia,< 10 nM
same,TGI,CCRF-CEM leukemia,1360 nM
same,GI50,HCT-116 colon,< 10 nM
same,TGI,HCT-116 colon,1090 nM
same,GI50,CAKI-1 renal,< 10 nM
same,TGI,CAKI-1 renal,80.5 nM
same,GI50,MCF7 breast,< 10 nM
same,TGI,MCF7 breast,145 nM
same,GI50,BT-549 breast,10.8 nM
same,TGI,BT-549 breast,38.4 nM
same,GI50,SK-MEL-28 melanoma,16.1 nM
same,TGI,SK-MEL-28 melanoma,104 nM
same,GI50,EKVX NSCLC,16.8 nM
same,TGI,EKVX NSCLC,183 nM
same,GI50,UO-31 renal,17.9 nM
same,TGI,UO-31 renal,57.8 nM
same,GI50,K-562 leukemia,< 10 nM
same,TGI,K-562 leukemia,29800 nM
same,GI50,SK-MEL-5 melanoma,20.4 nM
same,TGI,SK-MEL-5 melanoma,97.6 nM
same,GI50,COLO 205 colon,< 10 nM
same,TGI,COLO 205 colon,15.7 nM
same,GI50,HOP-62 NSCLC,10.1 nM
same,TGI,HOP-62 NSCLC,62 nM
same,GI50,M14 melanoma,< 11.5 nM
same,TGI,M14 melanoma,70.6 nM
same,GI50,HOP-92 NSCLC,< 10.7 nM
same,TGI,HOP-92 NSCLC,42.9 nM
same,GI50,TK-10 renal,16.6 nM
same,TGI,TK-10 renal,57.6 nM
same,GI50,RPMI-8226 leukemia,41.8 nM
same,TGI,RPMI-8226 leukemia,155 nM
same,GI50,NCI-H460 lung,20.8 nM
same,TGI,NCI-H460 lung,80.4 nM
same,GI50,HS 578T breast,< 10 nM
same,TGI,HS 578T breast,30.2 nM
same,GI50,SN12C renal,< 10 nM
same,TGI,SN12C renal,120 nM
same,GI50,SK-MEL-2 melanoma,12.4 nM
same,TGI,SK-MEL-2 melanoma,46.8 nM
same,GI50,IGROV1 ovarian,< 10 nM
same,TGI,IGROV1 ovarian,70.7 nM
same,GI50,NCI-H522 lung,< 11.7 nM
same,TGI,NCI-H522 lung,48.8 nM
same,GI50,OVCAR-4 ovarian,16.2 nM
same,TGI,OVCAR-4 ovarian,104 nM
same,GI50,DU-145 prostate,< 11.8 nM
same,TGI,DU-145 prostate,482 nM
same,GI50,786-0 renal,< 11.9 nM
same,TGI,786-0 renal,94.4 nM
same,GI50,A549 NSCLC,< 10 nM
same,TGI,A549 NSCLC,116 nM
same,GI50,HCC-2998 colon,15.9 nM
same,TGI,HCC-2998 colon,76.2 nM
same,GI50,NCI-H226 lung,< 10 nM
same,TGI,NCI-H226 lung,57.3 nM
same,GI50,OVCAR-3 ovarian,< 10 nM
same,TGI,OVCAR-3 ovarian,42.2 nM
same,GI50,NCI-H23 lung,< 10.9 nM
same,TGI,NCI-H23 lung,72.6 nM
same,GI50,SW-620 colon,< 10 nM
same,TGI,SW-620 colon,112 nM
same,GI50,SNB-75 CNS,< 10 nM
same,TGI,SNB-75 CNS,17.7 nM
same,GI50,U251 CNS,< 10 nM
same,TGI,U251 CNS,123 nM
same,GI50,SNB-19 CNS,10.6 nM
same,TGI,SNB-19 CNS,172 nM
same,GI50,HL-60(TB) leukemia,< 10 nM
same,TGI,HL-60(TB) leukemia,29.8 nM
same,GI50,UACC-257 melanoma,25.2 nM
same,TGI,UACC-257 melanoma,213 nM
same,GI50,KM12 colon,< 10.5 nM
same,TGI,KM12 colon,109 nM
same,GI50,A498 renal,< 13 nM
same,TGI,A498 renal,34.1 nM
same,GI50,T-47D breast,12.9 nM
same,TGI,T-47D breast,155 nM
same,GI50,OVCAR-8 ovarian,17.6 nM
same,TGI,OVCAR-8 ovarian,593 nM
same,GI50,NCI/ADR-RES ovarian,280 nM
same,TGI,NCI/ADR-RES ovarian,2890 nM
same,GI50,MDA-MB-231 breast,< 10 nM
same,TGI,MDA-MB-231 breast,42.3 nM
same,GI50,SK-OV-3 ovarian,< 10.8 nM
same,TGI,SK-OV-3 ovarian,202 nM
same,GI50,SF-295 CNS,16.2 nM
same,TGI,SF-295 CNS,76.9 nM
same,GI50,HCT-15 colon,25.9 nM
same,TGI,HCT-15 colon,630 nM
same,GI50,LOX IMVI melanoma,< 10 nM
same,TGI,LOX IMVI melanoma,20.2 nM
same,GI50,OVCAR-5 ovarian,12.1 nM
same,TGI,OVCAR-5 ovarian,163 nM
same,GI50,SR leukemia,< 10 nM
same,GI50,ACHN renal,13.9 nM
same,TGI,ACHN renal,105 nM
N#Cc1c(N2CCCC2)nsc1Nc1ccc(F)cc1,TGI,UACC-62 melanoma,> 100000 nM
same,TGI,SF-539 CNS,> 100000 nM
same,TGI,SF-268 CNS,> 100000 nM
same,TGI,MALME-3M melanoma,> 100000 nM
same,TGI,PC-3 prostate,> 100000 nM
same,TGI,MOLT-4 leukemia,> 100000 nM
same,TGI,HT29 colon,> 100000 nM
same,TGI,RXF 393 renal,> 100000 nM
same,TGI,MDA-MB-435,> 100000 nM
same,TGI,CCRF-CEM leukemia,> 100000 nM
same,TGI,HCT-116 colon,> 100000 nM
same,TGI,CAKI-1 renal,> 100000 nM
same,TGI,SK-MEL-28 melanoma,> 100000 nM
same,TGI,EKVX NSCLC,> 100000 nM
same,TGI,K-562 leukemia,> 100000 nM
same,TGI,SK-MEL-5 melanoma,> 100000 nM
same,TGI,COLO 205 colon,> 100000 nM
same,TGI,HOP-62 NSCLC,> 100000 nM
same,TGI,M14 melanoma,> 100000 nM
same,TGI,HOP-92 NSCLC,> 100000 nM
same,TGI,TK-10 renal,> 100000 nM
same,TGI,RPMI-8226 leukemia,> 100000 nM
same,TGI,NCI-H460 lung,> 100000 nM
same,TGI,HS 578T breast,> 100000 nM
same,TGI,SN12C renal,> 100000 nM
same,TGI,SK-MEL-2 melanoma,> 100000 nM
same,TGI,IGROV1 ovarian,> 100000 nM
same,TGI,NCI-H522 lung,> 100000 nM
same,TGI,OVCAR-4 ovarian,> 100000 nM
same,TGI,DU-145 prostate,> 100000 nM
same,TGI,786-0 renal,> 100000 nM
same,TGI,A549 NSCLC,> 100000 nM
same,TGI,HCC-2998 colon,> 100000 nM
same,TGI,NCI-H226 lung,> 100000 nM
same,TGI,OVCAR-3 ovarian,> 100000 nM
same,TGI,NCI-H23 lung,> 100000 nM
same,TGI,SW-620 colon,> 100000 nM
same,TGI,U251 CNS,> 100000 nM
same,TGI,SNB-19 CNS,> 100000 nM
same,TGI,HL-60(TB) leukemia,> 100000 nM
same,TGI,UACC-257 melanoma,> 100000 nM
same,TGI,KM12 colon,> 100000 nM
same,TGI,A498 renal,> 100000 nM
same,TGI,T-47D breast,> 100000 nM
same,TGI,OVCAR-8 ovarian,> 100000 nM
same,TGI,NCI/ADR-RES ovarian,> 100000 nM
same,TGI,MDA-MB-231 breast,> 100000 nM
same,TGI,SK-OV-3 ovarian,> 100000 nM
same,TGI,SF-295 CNS,> 100000 nM
same,TGI,MDA-N,> 100000 nM
same,TGI,HCT-15 colon,> 100000 nM
same,TGI,LOX IMVI melanoma,> 100000 nM
same,TGI,OVCAR-5 ovarian,> 100000 nM
same,TGI,SR leukemia,> 100000 nM
same,TGI,ACHN renal,> 100000 nM
